# Test results from patent US20210204574A1, “Consumable Product Comprising Malted Wheat” (Lantmannen Functional Foods AB, priority 2018, published 2021).
# System: cholera toxin-induced secretion
# Assay: not given
# Parameters: species or system Sprague-Dawley rats
# Conditions: rat, in vivo
Compound,AF units,"Inhibition, %",antisecretory activity of pure phenols (in words)
O=c1c(O)c(-c2ccc(O)c(O)c2)oc2cc(O)cc(O)c12 [Quercetin],0.8 ± 0.1 AF units,42%,significant antisecretory activity
COc1ccccc1OC [Veratrole],,21%,induced secretion
Oc1cccc(O)c1 [Resorcinol],0.6 ± 0.1 AF units,30%,much smaller effect
COc1ccc([C@@H]2OC[C@@H]3[C@H]2CO[C@H]3c2ccc(OC)c(OC)c2)cc1OC [Eudesmine],,16%,increased secretion
OCc1ccccc1O[C@@H]1O[C@H](CO)[C@@H](O)[C@H](O)[C@H]1O [Salicin],0.3 ± 0.1 AF units,17%,much smaller effect
COc1cc(C(=O)O)ccc1O [Vanillic acid],1.1 ± 0.1 AF units,57%,significant antisecretory activity
Oc1cc2c(cc1O)CN(C(=S)NCCc1ccc(Cl)cc1)CCC2 [Capsazepine],0.8 ± 0.1 1.3 ± 0.1 AF units,38 66%,as active as guaiacol
"COc1ccccc1O [Guaiacol, 2-methoxyphenol]",0.9 ± 0.3 1.0 ± 0.2 1.5 ± 0.2 AF units,46 51 76%,induced antisecretory activity as early as day 1
COc1cc(/C=C/C(=O)O)ccc1O [Ferulic acid],1.2 ± 0.2 AF units,67%,significant antisecretory activity

# System: compleasomes (proteasome/complement complexes)
# Assay: Compleasome assay in blood (sandwich ELISA, mab against AF / polyclonal against C3c)
# Format: in vivo, Sprague-Dawley rats
# Conditions: FIG. 10a; 5 μM phenol or leachate in drinking water for 14 days; reversed titre
# Description: In another set of experiments, the rats were given water extracts of the cereals or purified phenols in their drinking water. The malted Kosack wheat was milled to flour, of which 200 g was put in a glass flask and 800 ml boiling water was successively mixed with the flour. After 3 hours of slow cooling to room temperature, the soak-water was filtered through a nylon filter and centrifuged for 30 min at 12000×g. The supernatant was frozen in 50 ml portions and diluted 1:6 with water each day during the experiment. Freeze-dried purified fractions of wheat extracts were dissolved in the drinking water. […] The drinks or the water control were given in excess over 1-14 days before testing of antisecretory activity.
# Rats were given leachate from malted wheat or pure phenols in the drinking water as described above. After 14 days, blood samples were drawn as described elsewhere (Bjorck et al., 2000 and Lönnroth et al., 2016) and the antisecretory activity in blood was estimated by performing a sandwich enzyme-linked immunosorbent assay (ELISA) for detection of compleasomes (proteasome/complement complexes) in blood plasma as described elsewhere (Lonnroth et al., 2016). A monoclonal antibody (mab) against antisecretory factor was used as catching antibody and a polyclonal antibody against complement factor 3c as detecting antibody. The titre was determined after development by a secondary antibody coupled to alkaline phosphatas.
row,Compound,proteasome/C3 complex (AF activity in blood) compared to controls
1,"COc1ccccc1O [Guaiacol, 2-methoxyphenol]",significantly higher
2,COc1cc(/C=C/C(=O)O)ccc1O [Ferulic acid],significantly higher

# Same assay, conditions: FIG. 10b; in drinking water for 14 days, 5 animals/group
row,Compound,compleasome concentration (AF activity in blood)
1,catechin,significant increase
2,COc1cc(/C=C/C(=O)O)cc(OC)c1O [sinapic acid],significant increase
